Columns and labels:
Plasmopara viticola = Plasmopara viticola (downy mildew of grapevine), grapevine leaf disk assay, preventive; type: in vivo; conditions: foliar, 168 h, 200 ppm, grapevine leaf disks, assessed seven days after inoculation, read-out: control of fungal infection, Plasmopara viticola
[1] = test system: Puccinia recondita f.sp. tritici; test: Puccinia recondita f.sp. tritici (wheat brown rust), wheat leaf segment assay, preventive; type: in vivo; conditions: foliar, 216 h, 200 ppm, wheat leaf segments, assessed nine days after inoculation, read-out: control of fungal infection, Puccinia recondite f.sp. tritici
[2] = test system: Erysiphe graminis f.sp. tritici; test: Erysiphe graminis f.sp. tritici (wheat powdery mildew), wheat leaf segment assay, preventive; type: in vivo; conditions: Blumeria graminis, foliar, 96 h; 200 ppm; wheat leaf segments; assessed four days after inoculation; read-out: control of fungal infection, Etysiphe graminis f.sp. tritici
Pyricularia oryzae = test: whole plant or invertebrate; type: in vivo; conditions: foliar, 96 h, read-out: control of fungal infection, Pyricularia oryzae
Septoria tritici = Septoria tritici (leaf blotch), liquid culture growth inhibition in nutrient broth; type: cell-based; conditions: Zymoseptoria tritici; 200 ppm; PDB broth, 24 C; inhibition of growth determined photometrically after 72 hrs; read-out: control of fungal infection, Septoria tritici
Septoria nodorum = Septoria nodorum (wheat glume blotch), wheat leaf segment assay, preventive; type: in vivo; conditions: Parastagonospora nodorum, foliar, 96 h; 200 ppm; wheat leaf segments; assessed four days after inoculation; read-out: control of fungal infection, Septoria nodorum
Phytophthora infestans = test: whole plant or invertebrate; type: in vivo; conditions: in Solanum lycopersicum, foliar, 96 h, read-out: control of fungal infection, Phytophthora infestans
Pythium ultimum = Pythium ultimum (Damping off), liquid culture growth inhibition in potato dextrose broth; type: cell-based; conditions: Globisporangium ultimum; 20 ppm; potato dextrose broth, 24° C.; inhibition of growth determined photometrically after 48 hours; read-out: control of fungal infection, Pythium ultimum

C#Cc1cnc2ccc(OC(SC)C(=O)NC(C)(C)C=NOCC)cc2c1 (single isomer, unassigned) [Compound No. 119, N-(2-Ethoxyimino-1,1-dimethyl-ethyl)-2-(3-ethynyl-quinolin-6-yloxy)-2-methylsulfanyl-acetamide]
≥ 60%: pest or weed control at 200 ppm (Plasmopara viticola) | pest or weed control at 200 ppm [1] | pest or weed control at 200 ppm [2] | pest or weed control at 200 ppm (Pyricularia oryzae) | inhibition of growth at 200 ppm (Septoria tritici) | pest or weed control at 200 ppm (Septoria nodorum) | pest or weed control at 200 ppm (Phytophthora infestans) | inhibition of growth at 20 ppm (Pythium ultimum)

C#Cc1cnc2ccc(OC(SC)C(=O)NC(C)(C)C=NOCC)cc2c1 (stereo not drawn) [Compound No. 118, N-(2-Ethoxyimino-1,1-dimethyl-ethyl)-2-(3-ethynyl-quinolin-6-yloxy)-2-methylsulfanyl-acetamide]
≥ 60%: pest or weed control at 200 ppm (Plasmopara viticola) | pest or weed control at 200 ppm [1] | pest or weed control at 200 ppm [2] | pest or weed control at 200 ppm (Pyricularia oryzae) | inhibition of growth at 200 ppm (Septoria tritici) | pest or weed control at 200 ppm (Septoria nodorum) | pest or weed control at 200 ppm (Phytophthora infestans) | inhibition of growth at 20 ppm (Pythium ultimum)

C#Cc1cnc2c(Cl)cc(OC(SC)C(=O)NC(C)(C)C=NOCC=C)cc2c1 (stereo not drawn) [Compound No. 117, N-(2-Allyloxyimino-1,1-dimethyl-ethyl)-2-(8-chloro-3-ethynyl-quinolin-6-yloxy)-2-methylsulfanyl-acetamide]
≥ 60%: pest or weed control at 200 ppm (Plasmopara viticola) | pest or weed control at 200 ppm [1] | pest or weed control at 200 ppm [2] | pest or weed control at 200 ppm (Pyricularia oryzae) | inhibition of growth at 200 ppm (Septoria tritici) | pest or weed control at 200 ppm (Septoria nodorum) | pest or weed control at 200 ppm (Phytophthora infestans) | inhibition of growth at 20 ppm (Pythium ultimum)
